These results are taken from publication PMC7765321, “Novel Isoniazid-Carborane Hybrids Active In Vitro against Mycobacterium tuberculosis” (Pharmaceuticals, 2020).

Data set [1] relates to Mtb H37Rv strain. Briefly: microbe, parasite or virus in culture. It counts as cell-based. As to conditions: for MIC50: concentration exhibiting 50% inhibition of mycobacterial growth; for MIC50 / MIC99: wild-type Mtb H37Rv, 96 h; for MIC99: concentration exhibiting 99% inhibition of mycobacterial growth.
Data set [2] in a line: in vitro. As to conditions: PAMPA, pH 7.4.
Data set [3] is described as follows: Determination of the CC50 value (MTT assay). To be noted: human, HaCaT cells (immortalized keratinocytes). (Tetrazolium assays rely on reduction of a dye to a coloured formazan, in cell work by metabolically active cells.)
Data set [4] is described as follows: Partition (P) and distribution (D) coefficient, shake-flask octan-1-ol/water or PBS.
The test system of data set [5] is Mtb. Further details: method as in PMID 28390957. As to conditions: against Mtb; cited from earlier work.
The conditions of data set [6]: for permeation compared to INH (4): PAMPA; for PAMPA log Pe: PBS pH 7.4, 18 h, RT, Pe in cm/s. A general note: In PAMPA a lipid-coated filter parts donor from acceptor wells.
The test system of data set [7] is HaCaT cells.
Data set [8] relates to HaCaT cells. To be noted: 24 h at MIC50 and MIC99 values for the Mtb strain.
Data set [9] deals with HaCaT cells. This is another data set of the same source.
Setting [10] is: octan-1-ol/water, shake-flask, RT.

≈ marks a conversion by molar mass, not a printed value.

As to “1,12-dicarba-closo-dodecaborane-1-carboxylic acid hydrazide [Compound 3]”, the “growth inhibition of Mtb” value in data set [1] (at 75 µg/mL (0.37 mM)) is “not considerably inhibited”.
What is called Papp is the rate of passage across a membrane or cell layer, normalised by area and donor concentration. A low value points to poor permeation. In general, CC50 refers to the concentration at which the toxic effect on the cells reaches its halfway point. Low readings indicate greater toxicity to the cells, high ones lower toxicity to the cells. As a reminder, the logP is a log measure of how a compound divides between an organic and an aqueous phase. Low values mean lower lipophilicity, high ones higher lipophilicity. Broadly, the MIC is the lowest concentration found to suppress growth. Regarding `NNC(=O)c1ccncc1` [4 (INH), pyridine-4-carbohydrazide, reference compound], in data set [2], the Papp at 18 h was 0.617 ×10⁻⁶ cm/s. Besides, in data set [1] (Mycobacterium tuberculosis), the MIC50 is 0.073 µM (≈ 0.01 µg/mL) and the MIC99 stood at 0.36 µM (≈ 0.0494 µg/mL). In data set [3], this compound gave a cytotoxic concentration (CC50) of 725.8 ± 2.36 µM. The logP at 0.5 h in data set [4] (octan-1-ol/water) was -1 ± 0.09. In addition, in [5], the MIC is listed as 0.20 µg/mL (≈ 1.46 µM).
The log P is a log measure of how a compound divides between an organic and an aqueous phase. A lower log P goes with lower lipophilicity. As for “N′-((1,2-dicarba-closo-dodecaboran-1-yl)ethyl)isonicotinohydrazide [Compound 23]”, in [6], the “permeation compared to INH (4)” value is “two orders of magnitude higher” and the “PAMPA log Pe” value is given as −4.16 ± 0.05. In addition, in [1], the MIC50 came to 1.60 µM and the MIC99 amounted to 4.90 µM. The compound further displayed a half-maximal cytotoxic concentration (CC50) in [7] of 86.5 ± 4.59 µM. For the same compound, the “log P” value in [4] (setting [10]) was 0.64 ± 0.09.
Turning to “N′-((1,2-dicarba-closo-dodecaboran-1-yl)ethylidene)isonicotinohydrazide [Compound 20]”, in [6], the “permeation compared to INH (4)” value was “one order of magnitude higher” and the “PAMPA log Pe” value is −5.05 ± 0.09. Further, in data set [1], the MIC50 was found to be 0.082 µM and the MIC99 came to 1.60 µM. Also, it took 81.5 ± 7.23 µM to reach half-maximal cytotoxicity in data set [7] (CC50). Also, in [4] (setting [10]), the log partition coefficient (log P) worked out at 1.26 ± 0.22.
Regarding “N′-((1,2-dicarba-closo-dodecaboran-1-yl)propanoyl)isonicotinohydrazide [Compound 8]”, in data set [6], the “permeation compared to INH (4)” value was “two orders of magnitude higher” and the “PAMPA log Pe” value is recorded as −4.98 ± 0.12. Besides, in data set [1], the MIC50 came out at 44.70 µM and the MIC99 came out at 100 µM. In data set [8], this compound showed an apoptotic/necrotic cells of 16.45%. The compound further came in with a cytotoxic concentration (CC50) in [7] of 86.6 ± 3.63 µM. Moreover, the “log P” value in data set [4] (setting [10]) is 0.67 ± 0.07. The “viable cells (MTT)” value in data set [9] (24 h at concentration consistent with MIC99 for wild-type Mtb) turned out to be 50%.
Consider “N′-((1,7-dicarba-closo-dodecaboran-1-yl)ethyl)isonicotinohydrazide [Compound 24]”, for which, in data set [6], the “permeation compared to INH (4)” value is reported as “two orders of magnitude higher” and the “PAMPA log Pe” value is reported as −4.85 ± 0.06. For the same compound, in [1], the MIC50 is given as 0.81 µM and the MIC99 was determined as 3.25 µM. For the same compound, the CC50 in data set [7] turned out to be 105 ± 6.13 µM. Further, the lipophilicity (log P) in [4] (setting [10]) came to 0.66 ± 0.08.
Turning to “N′-((1,7-dicarba-closo-dodecaboran-1-yl)ethylidene)isonicotinohydrazide [Compound 21]”, in data set [6], the “permeation compared to INH (4)” value is recorded as “two orders of magnitude higher” and the “PAMPA log Pe” value is reported as −4.40 ± 0.10. Further, in data set [1], the MIC50 was 0.16 µM and the MIC99 is on record as 0.82 µM. The compound also yielded a CC50 in [7] of 78.23 ± 0.71 µM. In data set [4] (setting [10]), the “log P” value came to 1.66 ± 0.18.
For “N′-((1,7-dicarba-closo-dodecaboran-1-yl)methylidene)isonicotinohydrazide [Compound 14]”, in data set [6], the “permeation compared to INH (4)” value is on record as “two orders of magnitude higher” and the “PAMPA log Pe” value is −4.06 ± 0.09. In data set [1], this compound returned an MIC50 of 0.86 µM and an MIC99 of 3.40 µM. In data set [7], this compound gave a CC50 of 131 ± 3.46 µM. Moreover, the “log P” value in data set [4] (setting [10]) stood at 2.03 ± 0.09.
Turning to “N′-((1,7-dicarba-closo-dodecaboran-1-yl)propanoyl)isonicotinohydrazide [Compound 9]”, in data set [6], the “permeation compared to INH (4)” value was “one order of magnitude higher” and the “PAMPA log Pe” value was −5.09 ± 0.07. In data set [1], this compound yielded an MIC50 of 22.40 µM and an MIC99 of 74.50 µM. The same compound registered a half-maximal cytotoxic concentration (CC50) in data set [7] of 290.6 ± 1.45 µM. For the same compound, the log partition coefficient (log P) in data set [4] (setting [10]) is recorded as 1.11 ± 0.11. For the same compound, the “cytotoxicity / cell viability (MTT)” value in [9] (24 h at MIC50 and MIC99 values for the ΔkatG strain) is on record as “did not cause severe cytotoxicity”.
With “N′-((1,12-dicarba-closo-dodecaboran-1-yl)ethyl)isonicotinohydrazide [Compound 25]”, in [6], the “permeation compared to INH (4)” value is “two orders of magnitude higher” and the “PAMPA log Pe” value is reported as −4.37 ± 0.04. In data set [1], this compound displayed an MIC50 of 0.32 µM and an MIC99 of 6.50 µM. For the same compound, the “log P” value in [4] (setting [10]) was found to be 1.15 ± 0.14.
On to “N′-((1,12-dicarba-closo-dodecaboran-1-yl)ethylidene)isonicotinohydrazide [Compound 22]”, for which, in [6], the “permeation compared to INH (4)” value is given as “two orders of magnitude higher” and the “PAMPA log Pe” value is reported as −4.13 ± 0.07. In addition, in [1], the MIC50 came to 0.16 µM and the MIC99 amounted to 1.60 µM. The CC50 in data set [7] came out at 80.2 ± 3.81 µM. In addition, the “log P” value in [4] (setting [10]) is recorded as 1.30 ± 0.07.
Turning to “N′-((1,12-dicarba-closo-dodecaboran-1-yl)methylidene)isonicotinohydrazide [Compound 15]”, in data set [6], the “permeation compared to INH (4)” value is reported as “three orders of magnitude higher” and the “PAMPA log Pe” value is recorded as −3.90 ± 0.17. In [1], the MIC50 was determined as 10.30 µM and the MIC99 is given as 17.20 µM. Moreover, half-maximal cytotoxicity in [7] (CC50) was put at 305 ± 6.11 µM. In addition, the lipophilicity (log P) in data set [4] (setting [10]) stood at 2.28 ± 0.20.
In the case of “N′-((1,12-dicarba-closo-dodecaboran-1-yl)propanoyl)isonicotinohydrazide [Compound 10]”, in data set [6], the “permeation compared to INH (4)” value is reported as “two orders of magnitude higher” and the “PAMPA log Pe” value is given as −4.65 ± 0.09. In data set [1], this compound had an MIC50 of 29.80 µM and an MIC99 of 74.50 µM. For the same compound, the cytotoxic concentration (CC50) in data set [7] came out at 161 ± 3.89 µM. Moreover, the lipophilicity (log P) in data set [4] (setting [10]) came to 0.99 ± 0.07.
As for “N′-((7,8-dicarba-nido-undecaboranyl)methylidene)isonicotinohydrazide [Compound 16]”, in data set [6], the “permeation compared to INH (4)” value is on record as “one order of magnitude higher” and the “PAMPA log Pe” value is recorded as −5.05 ± 0.30. Further, in [1], the MIC50 worked out at 0.16 µM and the MIC99 was found to be 0.33 µM. In data set [7], the midpoint of cytotoxicity, the CC50, lay at 249.4 ± 0.56 µM. Besides, in data set [4] (octan-1-ol/PBS, shake-flask, RT), the “log D7.4” value was found to be 0.67 ± 0.04.
